Biological target: T1, xanthine oxidase (XO) (Bos taurus, UniProt P80457)
T1 construct: gene XDH
Test: biolayer interferometry, biotinylated XO on SA sensor (also activates the purified enzyme, EC50 […])
Assay type: binding

T1 sequence (P80457 2-1332): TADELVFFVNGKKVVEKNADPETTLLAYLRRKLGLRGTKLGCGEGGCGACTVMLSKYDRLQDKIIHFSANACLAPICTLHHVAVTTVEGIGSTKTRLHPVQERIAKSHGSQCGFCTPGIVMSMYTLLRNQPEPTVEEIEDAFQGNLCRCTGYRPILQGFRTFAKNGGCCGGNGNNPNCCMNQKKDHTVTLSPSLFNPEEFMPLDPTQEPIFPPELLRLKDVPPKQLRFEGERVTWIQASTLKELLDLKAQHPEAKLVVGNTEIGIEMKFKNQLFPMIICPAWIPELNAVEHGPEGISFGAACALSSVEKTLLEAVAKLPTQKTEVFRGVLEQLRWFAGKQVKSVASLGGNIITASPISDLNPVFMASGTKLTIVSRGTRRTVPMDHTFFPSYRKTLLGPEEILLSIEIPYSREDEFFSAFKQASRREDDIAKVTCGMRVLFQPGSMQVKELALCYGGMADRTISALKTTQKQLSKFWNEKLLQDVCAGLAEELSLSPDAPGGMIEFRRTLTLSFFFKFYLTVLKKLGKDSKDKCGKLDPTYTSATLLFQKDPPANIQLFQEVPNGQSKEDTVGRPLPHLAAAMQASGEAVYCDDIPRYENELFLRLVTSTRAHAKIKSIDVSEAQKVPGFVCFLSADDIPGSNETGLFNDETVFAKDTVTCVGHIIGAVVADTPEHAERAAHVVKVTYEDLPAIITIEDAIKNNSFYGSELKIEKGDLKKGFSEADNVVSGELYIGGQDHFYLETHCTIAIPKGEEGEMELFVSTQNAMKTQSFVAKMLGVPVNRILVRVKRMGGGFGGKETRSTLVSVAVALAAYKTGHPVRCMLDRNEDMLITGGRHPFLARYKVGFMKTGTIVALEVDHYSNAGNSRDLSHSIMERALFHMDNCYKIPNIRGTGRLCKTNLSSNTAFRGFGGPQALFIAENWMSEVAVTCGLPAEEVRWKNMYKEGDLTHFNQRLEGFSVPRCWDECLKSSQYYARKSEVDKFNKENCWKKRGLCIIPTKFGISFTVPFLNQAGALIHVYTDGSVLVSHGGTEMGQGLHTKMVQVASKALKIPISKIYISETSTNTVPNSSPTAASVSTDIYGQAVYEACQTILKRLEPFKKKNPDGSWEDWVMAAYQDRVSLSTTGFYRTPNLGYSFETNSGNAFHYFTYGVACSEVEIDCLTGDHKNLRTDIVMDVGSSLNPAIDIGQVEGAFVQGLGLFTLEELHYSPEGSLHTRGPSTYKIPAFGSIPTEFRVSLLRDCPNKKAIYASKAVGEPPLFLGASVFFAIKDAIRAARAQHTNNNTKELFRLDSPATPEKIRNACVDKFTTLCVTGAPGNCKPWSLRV

`CC1=CC(=O)c2c(O)cccc2C1=O` [PLB, Plumbagin] gave a Kd of 499 nM.
